Data set [1] has as its target T1, LHRH receptors (rat pituitary membranes) (Rattus norvegicus, UniProt P30969).
T1 construct: Pituitary membranes containing LHRH receptors are prepared in batches from quick-frozen rat pituitaries; tissue Hilltop Labs; host or cells: rat pituitary membranes
T1 sequence (P30969 1-327): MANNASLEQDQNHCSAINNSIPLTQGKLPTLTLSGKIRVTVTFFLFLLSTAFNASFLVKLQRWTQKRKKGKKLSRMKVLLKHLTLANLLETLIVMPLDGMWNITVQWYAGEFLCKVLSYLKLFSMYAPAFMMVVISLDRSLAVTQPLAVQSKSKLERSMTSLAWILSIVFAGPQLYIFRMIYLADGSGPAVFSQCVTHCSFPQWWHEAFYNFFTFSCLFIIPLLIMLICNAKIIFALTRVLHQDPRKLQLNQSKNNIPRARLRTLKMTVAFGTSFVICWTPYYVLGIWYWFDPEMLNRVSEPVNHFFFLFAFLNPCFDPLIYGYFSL
Briefly: LHRH radioligand receptor binding assay. Conditions: radioiodinated [D-Leu6-des Gly10]-LHRH ethyl amide 50 pM, 2 hours at 4° C., read-out: LHRH RECEPTOR BINDING AFFINITY KI. How it is done:
Receptor Binding. A radioligand receptor binding assay is performed in a similar way to that described in the literature (J. Marion et al., Mol. Pharmacol. 19 399 (1981)). [D-Leu^6 -des Gly^10 ]-LHRH ethyl amide was radioiodinated by the chloramine-T method and used as the radioligand. Pituitary membranes containing LHRH receptors are prepared in batches from quick-frozen rat pituitaries obtained from Hilltop Labs. The radioligand (50 pM), receptors, and compounds to be tested are coincubated for 2 hours at 4° C. Bound ligand is separated from free ligand via centrifugation and aspiration. Compounds are tested at six half-log concentration increments, and the equilibrium dissociation constant (KI) is calculated from the concentration which displaces 50% of specifically bound radioligand.

Another data set relates to serum testosterone. Conditions: given orally to patients, 200 to 1200 mg daily; cited from earlier work.
The conditions of data set [2]: in vivo; cited from earlier work.

A word on the Ki: it is the equilibrium dissociation constant of an inhibitor or competing ligand from its target. `CC(=O)N1CCN(c2ccc(OCC3COC(Cn4ccnc4)(c4ccc(Cl)cc4Cl)O3)cc2)CC1` (stereo not drawn) [Ketoconazole]: the Ki in data set [1] was determined as 2000 nM. Further, in the data set on serum testosterone, the “suppression of serum testosterone” value is on record as “dose dependent suppression of serum testosterone”.

For the molecule `CCNC(=O)[C@@H]1CCCN1C(=O)[C@H](CCCNC(=N)N)NC(=O)[C@H](CC(C)C)NC(=O)[C@@H](CC(C)C)NC(=O)[C@H](Cc1ccc(O)cc1)NC(=O)[C@H](CO)NC(=O)[C@H](Cc1c[nH]c2ccccc12)NC(=O)[C@H](Cc1c[nH]cn1)NC(=O)[C@@H]1CCC(=O)N1` [leuprolide], the “bioavailable from the duodenum” value in data set [2] is recorded as “less than 1%”.
